In the supplement of paper PMC10307832:

What was measured:
Assay in all cases: relative viability (nuclei count vs DMSO), 5 days (fraction); higher = more cells survive
[1] = compound: C1CC(C1)(C(=O)O)C(=O)O.[NH2-].[NH2-].[Pt+2] [Carboplatin] + NC(=O)Nc1cc(-c2cccc(F)c2)sc1C(=O)N[C@H]1CCCNC1 [AZD7762] (partner 0.2 µM)
How it was run: (§1)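 Nuclei were stained with Hoechst during a one-step fixation (final 0.05% Triton X-100, 1% formaldehyde, 1 ug/ml Hoechst) carried out 5 days after dosing, then counted on 4× images. The cells, lung cancer lines in 1536-well plates, had been dosed by pin tool the day after seeding with one drug alone or a fixed anchor-drug dose plus five library-drug doses (not always all listed) in √10 steps. Relative viability is the nuclei count in treated wells divided by that in vehicle wells, and each value is the median of duplicate plates.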

[2] = compound: C1CC(C1)(C(=O)O)C(=O)O.[NH2-].[NH2-].[Pt+2] [Carboplatin] + CCNC(=O)c1noc(-c2cc(C(C)C)c(O)cc2O)c1-c1ccc(CN2CCOCC2)cc1 [Luminespib] (partner 0.01 µM)
How it was run: as §1

[3] = compound: NS(=O)(=O)OC[C@@H]1C[C@@H](n2ccc3c(N[C@H]4CCc5ccccc54)ncnc32)C[C@@H]1O [MLN4924] + CS(=O)(=O)N1CCN(Cc2cc3nc(-c4cccc5[nH]ncc45)nc(N4CCOCC4)c3s2)CC1 [Pictilisib] (partner 1 µM)
How it was run: as §1

[4] = compound: C1CC(C1)(C(=O)O)C(=O)O.[NH2-].[NH2-].[Pt+2] [Carboplatin] + CS(=O)(=O)CCNCc1ccc(-c2ccc3ncnc(Nc4ccc(OCc5cccc(F)c5)c(Cl)c4)c3c2)o1 [Lapatinib] (partner 2 µM)
How it was run: as §1

Cell Line | relative viability ([1]; first compound 0.08 µM) | relative viability ([1]; first compound 0.253 µM) | relative viability ([1]; first compound 0.8 µM) | relative viability ([1]; first compound 2.53 µM) | relative viability ([1]; first compound 8 µM) | relative viability ([2]; first compound 0.08 µM) | relative viability ([2]; first compound 0.253 µM) | relative viability ([2]; first compound 0.8 µM) | relative viability ([2]; first compound 2.53 µM) | relative viability ([2]; first compound 8 µM) | relative viability ([3]; first compound 0.04 µM) | relative viability ([3]; first compound 0.1265 µM) | relative viability ([3]; first compound 0.4 µM) | relative viability ([3]; first compound 1.265 µM) | relative viability ([3]; first compound 4 µM) | relative viability ([4]; first compound 0.08 µM) | relative viability ([4]; first compound 0.253 µM) | relative viability ([4]; first compound 0.8 µM) | relative viability ([4]; first compound 2.53 µM) | relative viability ([4]; first compound 8 µM)
NCI-H2342 | 0.57 | 0.595 | 0.55 | 0.439 | 0.484 | 0.898 | 0.789 | 0.68 | 0.788 | 0.608 | – | – | – | – | – | – | – | – | – | –
NCI-H441 | 1.26 | 1.11 | 0.954 | 0.995 | 0.804 | 0.387 | 0.28 | 0.266 | 0.295 | 0.234 | 0.471 | 0.285 | 0.251 | 0.136 | 0.139 | – | – | – | – | –
HCC-78 | 0.744 | 0.712 | 0.656 | 0.693 | 0.644 | – | – | – | – | – | 0.272 | 0.187 | 0.14 | 0.138 | 0.139 | 0.867 | 0.833 | 0.971 | 0.875 | 0.631
Calu-6 | – | – | – | – | – | – | – | – | – | – | 1.08 | 0.707 | 0.238 | 0.108 | 0.135 | 1.12 | 1.06 | 1.03 | 0.87 | 0.456
NCI-H2009 | – | – | – | – | – | 1.06 | 1.05 | 0.986 | 0.935 | 0.581 | 0.456 | 0.159 | 0.236 | 0.0505 | 0.0867 | 1.37 | 0.89 | 0.837 | 0.958 | 0.572
NCI-H1648 | 0.662 | 0.62 | 0.538 | 0.696 | 0.539 | – | – | – | – | – | – | – | – | – | – | – | – | – | – | –
SW 1573 | – | – | – | – | – | 0.298 | 0.293 | 0.344 | 0.579 | 0.222 | 0.487 | 0.637 | 0.22 | 0.0805 | 0.0657 | 1.05 | 1.1 | 1.17 | 1.3 | 0.961
LCLC-103H | 0.853 | 0.763 | 0.802 | 0.806 | 0.806 | 0.918 | 1.09 | 0.859 | 0.908 | 0.905 | 0.757 | 0.697 | 0.788 | 0.238 | 0.233 | – | – | – | – | –
NCI-H661 | – | – | – | – | – | 0.892 | 0.901 | 0.854 | 0.874 | 0.744 | 0.414 | 0.567 | 0.482 | 0.343 | 0.337 | 0.649 | 0.511 | 0.331 | 0.369 | 0.459
NCI-H1563 | – | – | – | – | – | 0.526 | 0.506 | 0.499 | 0.482 | 0.565 | 0.802 | 0.646 | 0.581 | 0.535 | 0.586 | 0.998 | 1.07 | 1.11 | 0.925 | 0.979
